≈ marks a conversion by molar mass, not a printed value.
How the values were obtained:
Format in all cases: cell-based
[1] = tested on: C. bolteae; assay: microbe, parasite or virus in culture; conditions: Enterocloster bolteae; clinical isolates, n=6
[2] = tested on: Anaerobic Gram positive cocci; assay: organism not typed; conditions: clinical gastrointestinal isolates, n=49
[3] = tested on: C. difficile; assay: microbe, parasite or virus in culture; conditions: clinical isolates, n=23
[4] = tested on: Bacteroides fragilis group; assay: microbe, parasite or virus in culture; conditions: Bacteroides fragilis; clinical gastrointestinal isolates, n=54
[5] = tested on: C. sordellii; assay: microbe, parasite or virus in culture; conditions: clinical isolates, n=5
[6] = tested on: C. clostridioforme; assay: organism not typed; conditions: clinical isolates, n=5

## CCc1c(Cl)c(O)c(Cl)c(O)c1C(=O)O[C@H]1[C@H](O)[C@H](OC)[C@H](OC/C2=C\C=C\C[C@H](O)/C(C)=C/[C@H](CC)C(O[C@@H]3OC(C)(C)[C@@H](OC(=O)C(C)C)[C@H](O)[C@@H]3O)/C(C)=C/C(C)=C/C[C@@H](C(C)O)OC2=O)O[C@@H]1C (stereo partly drawn) [Compound I]
[1]
  MIC50: > 1020 µg/mL
  MIC90: > 1020 µg/mL
[2]
  MIC50: 0.5 µg/mL (≈ 0.473 µM)
  MIC90: 2 µg/mL (≈ 1.89 µM)
  Range (MIC): 0.06 to 1024 µg/mL
[3]; Clostridioides difficile
  MIC50: 0.12 µg/mL (≈ 0.113 µM)
  MIC90: 0.25 µg/mL (≈ 0.236 µM)
[3]
  Range (MIC): 0.062 to 2 µg/mL
[4]
  MIC50: 512 µg/mL (≈ 484 µM)
  MIC90: > 1020 µg/mL
[5]; Paraclostridium sordellii
  MIC50: 0.062 µg/mL (≈ 0.0586 µM)
  MIC90: 0.062 µg/mL (≈ 0.0586 µM)
[5]
  Range (MIC): 0.062 µg/mL
[6]
  MIC50: 4 µg/mL (≈ 3.78 µM)
  MIC90: > 1020 µg/mL

— patent US20070173462A1, “Treatment of diseases associated with the use of antibiotics” (Optimer Pharmaceuticals, Inc., priority 2004, published 2007)
